Data as given in PMC6973046 (Journal of Thrombosis and Haemostasis, 2019).

What was measured:
tissue transglutaminase = target: T1, tissue transglutaminase (Homo sapiens, UniProt P21980); test: Isopeptidase assay; assay type: biochemical; settings: read-out: IC50 against tissue transglutaminase in the isopeptidase assay
T1 sequence (P21980 1-687): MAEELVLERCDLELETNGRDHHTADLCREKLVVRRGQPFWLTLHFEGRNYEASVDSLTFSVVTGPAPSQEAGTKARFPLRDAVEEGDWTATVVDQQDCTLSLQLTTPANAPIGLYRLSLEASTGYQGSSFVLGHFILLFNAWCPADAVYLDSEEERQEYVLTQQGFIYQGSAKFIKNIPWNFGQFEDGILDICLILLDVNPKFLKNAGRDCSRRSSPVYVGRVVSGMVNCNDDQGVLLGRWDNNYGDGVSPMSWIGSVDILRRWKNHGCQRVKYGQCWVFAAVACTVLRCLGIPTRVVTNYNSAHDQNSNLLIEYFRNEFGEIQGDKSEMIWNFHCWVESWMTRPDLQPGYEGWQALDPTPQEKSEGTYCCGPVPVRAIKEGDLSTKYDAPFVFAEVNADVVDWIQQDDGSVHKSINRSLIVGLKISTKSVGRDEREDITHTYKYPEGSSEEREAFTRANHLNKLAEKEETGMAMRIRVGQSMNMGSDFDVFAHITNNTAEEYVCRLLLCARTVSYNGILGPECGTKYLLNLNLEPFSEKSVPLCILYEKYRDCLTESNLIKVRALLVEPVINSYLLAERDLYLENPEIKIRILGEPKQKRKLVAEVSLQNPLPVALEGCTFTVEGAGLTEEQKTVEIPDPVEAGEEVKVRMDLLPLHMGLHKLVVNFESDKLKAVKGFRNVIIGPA

humans = settings: cited from earlier work

SMILES | IC50 (tissue transglutaminase) [nM] | Safety and tolerability (humans)
CC(=O)CSc1n(C)c(C)c(C)[n+]1C [L‐682.777] | ~250 | 
CCC(CC)CNC(=O)Cn1cccc(NC(=O)[C@H](CC/C=C/C(=O)OC)NC(=O)c2cncn2C)c1=O [ZED1227] |  | safe and well tolerated
